In BindingDB's records for patent US20250313563 (The Broad Institute, 2025):
Where “and” joins values, the source holds several entries; their conditions need not be identical. Equal entries are not always repeated.

Experiments:
[1] = molecular target: Glycogen synthase kinase-3 alpha (Homo sapiens, UniProt P49840); assay: TR-FRET Assay
How it was run: (§1)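 Kinase activity, measured after a 30-minute compound preincubation, was stopped with EDTA and quantified by TR-FRET using a Tb-labelled pSer641 antibody paired with streptavidin-d2.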

[2] = molecular target: Glycogen synthase kinase-3 beta (Homo sapiens, UniProt P49841); assay: TR-FRET Assay
How it was run: as §1

Glycogen synthase kinase-3 beta, sequence (P49841 whole entry): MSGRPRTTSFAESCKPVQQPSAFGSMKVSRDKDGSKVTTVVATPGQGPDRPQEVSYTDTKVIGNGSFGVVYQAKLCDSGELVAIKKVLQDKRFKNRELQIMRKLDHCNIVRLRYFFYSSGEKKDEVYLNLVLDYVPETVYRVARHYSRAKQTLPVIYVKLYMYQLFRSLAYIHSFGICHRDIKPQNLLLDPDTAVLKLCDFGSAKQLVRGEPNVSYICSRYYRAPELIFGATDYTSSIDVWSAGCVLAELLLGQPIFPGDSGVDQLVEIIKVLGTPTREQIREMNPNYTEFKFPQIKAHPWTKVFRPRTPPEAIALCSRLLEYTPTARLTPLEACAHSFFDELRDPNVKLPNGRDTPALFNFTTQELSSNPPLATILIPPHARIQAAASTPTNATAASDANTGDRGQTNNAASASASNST
Glycogen synthase kinase-3 alpha, sequence (P49840 whole entry): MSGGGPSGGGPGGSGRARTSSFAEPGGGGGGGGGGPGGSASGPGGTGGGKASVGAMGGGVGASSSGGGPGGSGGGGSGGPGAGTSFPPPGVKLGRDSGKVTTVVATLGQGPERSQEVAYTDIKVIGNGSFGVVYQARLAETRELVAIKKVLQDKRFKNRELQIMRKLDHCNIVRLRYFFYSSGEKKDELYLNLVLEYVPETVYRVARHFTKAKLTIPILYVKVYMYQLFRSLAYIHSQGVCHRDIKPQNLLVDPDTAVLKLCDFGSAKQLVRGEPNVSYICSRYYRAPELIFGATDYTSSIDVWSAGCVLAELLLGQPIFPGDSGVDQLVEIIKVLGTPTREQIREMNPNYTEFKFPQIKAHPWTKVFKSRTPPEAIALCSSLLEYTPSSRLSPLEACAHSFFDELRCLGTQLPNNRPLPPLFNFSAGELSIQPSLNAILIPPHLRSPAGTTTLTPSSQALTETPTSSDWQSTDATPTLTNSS

IC50 [1] | IC50 [2] | SMILES
< 100 nM | < 100 nM | CC(=O)N1C[C@@]2(C[C@@]3(CO2)C2=C(N=NC2)NC2=C3C(=O)CC(C)(C)C2)[C@@H]1C [US20250313563, Compound 948438]
> 5000 nM | > 5000 nM | CC[C@@]1(c2cccc(-c3ccnc(C)c3F)c2)C2=C(CC(C)(C)CC2=O)NC2N=NC(C)=C21 (stereo partly drawn) [US20250313563, Compound 927340]
100 to 1000 nM | 100 to 1000 nM | COC(=O)C1CCC2(CC1)C1=C(N=NC1)NC1=C2C(=O)CC(C)(C)C1 (stereo not drawn) [US20250313563, Compound 918270]
100 to 1000 nM | 1000 to 5000 nM | CC[C@]1(c2ccccc2)C2=CN=NC2NC2=C1C(=O)C[C@]1(CCCOC1)C2 (stereo partly drawn) [US20250313563, Compound 816878]
> 5000 nM | > 5000 nM | CC[C@@]1(c2cccc(N3CCC[C@H]3C)c2)C2=CN=NC2NC2=C1C(=O)CC(C)(C)C2 (stereo partly drawn) [US20250313563, Compound 918322]
< 100 nM | < 100 nM | COc1ccc(S(=O)(=O)N2CCC3(CC2)C2=C(N=NC2)NC2=C3C(=O)CC(C)(C)C2)cc1C [US20250313563, Compound 945680]
< 100 nM | 100 to 1000 nM | COc1ccc(S(=O)(=O)N2CCCC3(CC2)C2=CN=NC2NC2=C3C(=O)CC(C)(C)C2)cc1 (stereo not drawn) [US20250313563, Compound 917141]
< 100 nM and 100 to 1000 nM | < 100 nM and 100 to 1000 nM | CC[C@@]1(c2cccc(N3CCCCC3)c2)C2=C(CC(C)(C)CC2=O)NC2N=NC(C)=C21 (stereo partly drawn) [US20250313563, Compound 884116]
100 to 1000 nM | 100 to 1000 nM | CC1(C)CC(=O)C2=C(C1)NC1=C(CN=N1)C21CCOC1 (stereo not drawn) [US20250313563, Compound 826713]
100 to 1000 nM | > 5000 nM | CC[C@@]1(c2cccc(-c3ccnc4c3CCCC4)c2)C2=C(N=NC2)NC2=C1C(=O)N(Cc1ccccc1)C2 [US20250313563, Compound 948552]
100 to 1000 nM | 100 to 1000 nM | CCc1cc(-c2cccc([C@]3(CC)C4=CN=NC4NC4=C3C(=O)NC(C)(C)C4)c2)n(C)n1 (stereo partly drawn) [US20250313563, Compound 952561]
1000 to 5000 nM | > 5000 nM | CC1(C)CC(=O)C2=C(C1)NC1=C(CN=N1)C21COCCOC1 [US20250313563, Compound 912094]
< 100 nM | < 100 nM and 100 to 1000 nM | CC1(C)CC(=O)C2=C(C1)NC1=C(CN=N1)C21CCN(S(=O)(=O)c2cccc(Cl)c2F)CC1 [US20250313563, Compound 948118]
< 100 nM | 100 to 1000 nM | CC[C@@]1(c2cccc(-c3ccnc(C(F)F)c3)c2)C2=CN=NC2NC2=C1C(=O)NC(C)(C)C2 (stereo partly drawn) [US20250313563, Compound 950561]
< 100 nM | 100 to 1000 nM | CCC1(c2cccc(C(F)(F)F)c2)C2=CN=NC2NC2=C1C(=O)N(c1cccs1)CC2 (stereo not drawn) [US20250313563, Compound 950614]
100 to 1000 nM | 1000 to 5000 nM | CC[C@]1(c2ccccc2)C2=CN=NC2NC2=C1C(=O)C[C@](C)(COC)C2 (stereo partly drawn) [US20250313563, Compound 816875]
< 100 nM | < 100 nM | CC[C@]1(c2cccc(N(C)c3cnccn3)c2)C2=CN=NC2NC2=C1C(=O)CC(C)(C)C2 (stereo partly drawn) [US20250313563, Compound 915316]
< 100 nM | 100 to 1000 nM | CCC1(c2cccc(N(C)c3cccc(F)n3)c2)C2=CN=NC2NC2=C1C(=O)CC(C)(C)C2 (stereo not drawn) [US20250313563, Compound 918274]
100 to 1000 nM | > 5000 nM | CC[C@@]1(c2cccc(C(F)(F)F)c2)C2=CN=NC2NC2=C1C(=O)N(c1cnn(C)c1)CC2 (stereo partly drawn) [US20250313563, Compound 949271]
< 100 nM | 100 to 1000 nM | CC[C@@]1(c2cccc(-c3ccnc4c3cnn4C)c2)C2=CN=NC2NC2=C1C(=O)NC(C)(C)C2 (stereo partly drawn) [US20250313563, Compound 952913]

IC50 [1] | IC50 [2] | SMILES
< 100 nM | < 100 nM | CC(=O)N1C[C@]2(C[C@@]3(CO2)C2=C(N=NC2)NC2=C3C(=O)CC(C)(C)C2)[C@H]1C [US20250313563, Compound 948437]
< 100 nM | 100 to 1000 nM | CC[C@@]1(c2cccc(N(C)c3ccc(C(F)(F)F)nc3)c2)C2=CN=NC2NC2=C1C(=O)CC(C)(C)C2 (stereo partly drawn) [US20250313563, Compound 945474]
100 to 1000 nM | 100 to 1000 nM | CC1(c2ccccc2)C2=C(N=NC2)NC2=C1C(=O)CC1(CCCC1)C2 (stereo not drawn) [US20250313563, Compound 789460]
< 100 nM | < 100 nM | CCC1(c2cccc(C3CC3)c2)C2=CN=NC2NC2=C1C(=O)CC(C)(C)C2 (stereo not drawn) [US20250313563, Compound 801316]
< 100 nM and 100 to 1000 nM | 100 to 1000 nM and > 5000 nM | CC[C@@]1(c2cccc(-c3ccnc4ccncc34)c2)C2=CN=NC2NC2=C1C(=O)NC(C)(C)C2 (stereo partly drawn) [US20250313563, Compound 952910]
< 100 nM | < 100 nM | CC1CCC(C(=O)N2CC3(C2)CC2(CO3)C3=C(N=NC3)NC3=C2C(=O)CC(C)(C)C3)C1 (stereo not drawn) [US20250313563, Compound 947268]
100 to 1000 nM | 1000 to 5000 nM | CC[C@@]1(c2cccc(-c3cnn(C)c3)c2)C2=CN=NC2NC2=C1C(=O)C[C@H](C)C2 (stereo partly drawn) [US20250313563, Compound 823724]
< 100 nM | < 100 nM | CC[C@]1(c2cccc(S(=O)(=O)C3CC3)c2)C2=C(CC(C)(C)CC2=O)NC2N=NC(C(F)(F)F)=C21 (stereo partly drawn) [US20250313563, Compound 945715]
< 100 nM | 100 to 1000 nM | CC1(C)CC(=O)C2=C(C1)NC1=C(CN=N1)[C@]21C[C@@H](OCc2ccccc2)C1 [US20250313563, Compound 909211]
100 to 1000 nM | 100 to 1000 nM | C[C@H]1CCC[C@@]2(C1)C1=C(N=NC1)NC1=C2C(=O)CC(C)(C)C1 [US20250313563, Compound 893318]
100 to 1000 nM | 100 to 1000 nM | CC[C@]1(c2cccc(C3CCOCC3)c2)C2=CN=NC2NC2=C1C(=O)CC(C)(C)C2 (stereo partly drawn) [US20250313563, Compound 819638]
100 to 1000 nM | 100 to 1000 nM | CC[C@@]1(c2cccc(-c3ccnc(C)c3)c2)C2=CN=NC2NC2=C1C(=O)CC(C)(C)[C@H]2F (stereo partly drawn) [US20250313563, Compound 946104]
100 to 1000 nM | 100 to 1000 nM | CC1(C)CC(=O)C2=C(C1)NC1=C(CN=N1)C2(C)c1cccc(-c2ccccc2)c1 (stereo not drawn) [US20250313563, Compound 789513]
< 100 nM | 100 to 1000 nM | CC[C@@]1(c2cccc(C(F)F)c2)C2=C(CC(C)(C)CC2=O)NC2N=NC(C(F)(F)F)=C21 (stereo partly drawn) [US20250313563, Compound 945708]
1000 to 5000 nM | 1000 to 5000 nM | C[C@@H]1CCC[C@@]12C1=CN=NC1NC1=C2C(=O)CC(C)(C)C1 (stereo partly drawn) [US20250313563, Compound 874319]
100 to 1000 nM | > 5000 nM | CC[C@@]1(c2cccc(N(C)c3ncccn3)c2)C2=CN=NC2NC2=C1C(=O)NC(C)(C)C2 (stereo partly drawn) [US20250313563, Compound 949179]
< 100 nM | < 100 nM | CCC1(c2cccc(-c3ccncc3S(C)(=O)=O)c2)C2=CN=NC2NC2=C1C(=O)CC(C)(C)C2 (stereo not drawn) [US20250313563, Compound 947569]
< 100 nM | < 100 nM | CC[C@@]1(c2cccc(N3CCOc4ccccc43)c2)C2=CN=NC2NC2=C1C(=O)CC(C)(C)C2 (stereo partly drawn) [US20250313563, Compound 932655]
< 100 nM | < 100 nM | CC1(C)CC(=O)C2=C(C1)NC1N=NC(Br)=C1C21CCc2c(F)cccc21 (stereo not drawn) [US20250313563, Compound 801358]
